Here are results for six molecules from publication PMC4051119, “Bacterial actin MreB forms antiparallel double filaments” (eLife, 2014).

By Kd is commonly meant the free concentration of one partner at which half of the binding sites on the other are occupied at equilibrium, for simple one-to-one binding.

Several values for one entry are separate records, joined by “and”; a condition that tells them apart may be missing. Equal values may be shown once. Read-outs that look alike come from different tables or passages of the source.

One experiment relates to cell morphology. The arrangement: method as in earlier work. Conditions: ref Iwai et al., 2002; Gitai et al., 2005; Bean et al., 2009; Takacs et al., 2010; cited from earlier work.
Another experiment has as its target T1, ΔCcMreBdh (Caulobacter vibrioides, UniProt A0A0H3C7V4, F102S/V103G).
T1 construct: added initiator Met (M before I9) (N); made in house; host or cells: E. coli C41(DE3) (printed for the sister construct ΔCcMreBh)
Description: Isothermal titration calorimetry of nucleotides and MP265 binding to MreB. The arrangement: species or system Caulobacter crescentus. The following applies: ITC. As to the method: […] Samples were stored by the instrument in 96-well microtitre plates at 5°C prior to loading and performing the ITC titrations. […] Heat from the pre-injection was not used during fitting. Data were analysed manually in the Origin software package provided by the manufacturer and fit to a single set of binding sites model. […] The small endothermic heats of each injection in these experiments were fitted to a simple linear function that was subsequently subtracted from the equivalent integrated heats of the experiment when protein was present.
On the technique in general: In ITC the heat of successive injections is recorded.

[1] abbreviates: 25°C, ligand titrated into ΔCcMreBdh alone.
[2] abbreviates: 25°C, ligand titrated into ΔCcMreBdh alone, read-out: Kd.

T1 sequence (A0A0H3C7V4 9-347 F102S/V103G): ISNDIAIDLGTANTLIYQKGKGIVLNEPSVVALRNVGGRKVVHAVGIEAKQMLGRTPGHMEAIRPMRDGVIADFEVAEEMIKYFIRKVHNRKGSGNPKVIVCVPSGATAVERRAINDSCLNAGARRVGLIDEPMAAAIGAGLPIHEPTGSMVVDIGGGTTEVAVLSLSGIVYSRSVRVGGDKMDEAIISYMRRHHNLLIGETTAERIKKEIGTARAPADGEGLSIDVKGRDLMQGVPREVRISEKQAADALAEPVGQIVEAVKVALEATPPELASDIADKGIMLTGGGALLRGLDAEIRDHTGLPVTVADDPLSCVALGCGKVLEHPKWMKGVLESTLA

As to `N=C(N)SCc1ccc(Cl)c(Cl)c1` [A22, S-(3,4-dichlorobenzyl) isothiourea], the “effect on cell morphology” value in the experiment with cell morphology is given as “perturb cell morphology reminiscent of an MreB knock-out”.

For `Nc1ncnc2c1ncn2[C@@H]1O[C@H](COP(=O)(O)OP(=O)(O)O)[C@@H](O)[C@H]1O` [ADP], the ΔH on ΔCcMreBdh (setting [1]) was -5.3 kcal/mol. Also, the Kd at ΔCcMreBdh (setting [2]) is ~4 µM and 4 µM.

As for `Nc1ncnc2c1ncn2[C@@H]1O[C@H](COP(=O)(O)OP(=O)(O)NP(=O)(O)O)[C@@H](O)[C@H]1O` [AMPPNP], the ΔH on ΔCcMreBdh (setting [1]) was -4.4 kcal/mol. Besides, the Kd at ΔCcMreBdh (setting [2]) was ~65 µM and 65 µM.

Consider `Nc1ncnc2c1ncn2[C@@H]1O[C@H](COP(=O)(O)OP(=O)(O)OP(=O)(O)O)[C@@H](O)[C@H]1O` [ATP], for which, on ΔCcMreBdh (setting [1]), the ΔH is -6.0 kcal/mol. Moreover, the Kd on ΔCcMreBdh (setting [2]) is ~1 µM and 1 µM.

`Nc1ncnc2c1ncn2[C@@H]1O[C@H](CO[P@](=O)(O)O[P@](=O)(O)O[P@@](=O)(O)S)[C@@H](O)[C@H]1O` [ATPγS] displayed a ΔH at ΔCcMreBdh (setting [1]) of -7.7 kcal/mol. In addition, the Kd on ΔCcMreBdh (Kd, 25°C, ligand titrated into ΔCcMreBdh alone) was ~4.6 µM and 4.5 µM.

Turning to `N=C(N)SCc1ccc(Cl)cc1` [MP265], the Kd on ΔCcMreBdh (15°C, in the presence of 0.5 mM ADP, data not shown, read-out: affinity (Kd)) was 0.6 µM; on ΔCcMreBdh (15°C, in the presence of 0.5 mM AMPPNP, data not shown, read-out: affinity (Kd)), 0.7 µM; on ΔCcMreBdh (15°C, ΔCcMreBdh alone, data not shown, read-out: affinity (Kd)), 19 µM; on ΔCcMreBdh (25°C, in the presence of 0.5 mM ADP, read-out: Kd) it was 1.3 µM; at ΔCcMreBdh (25°C, in the presence of 0.5 mM AMPPNP, read-out: Kd), 1.7 µM; at ΔCcMreBdh (setting [2]), ~27 µM and 26 µM and 27 µM. Also, the ΔH at ΔCcMreBdh (25°C, in the presence of 0.5 mM ADP) is -12 kcal/mol; at ΔCcMreBdh (25°C, in the presence of 0.5 mM AMPPNP) it was -11 kcal/mol. Besides, the “increase of binding affinity in the presence of di- and trinucleotide phosphates” value on ΔCcMreBdh (with nucleotide versus ΔCcMreBdh alone) is given as 20–30 fold. In addition, the “effect on cell morphology” value in the experiment on cell morphology is “perturb cell morphology reminiscent of an MreB knock-out”.
